Laboratory results from the CombiSolv-Exp solvation set (Vermeire and Green 2021).

Experiment: solvent given as SMILES

C=CCCCC
Settings	solvation free energy, 298 K [kcal/mol]
in C1CCC2CCCCC2C1	-3.67
in C1CCC(C2CCCCC2)CC1	-3.65
in C=CCCCCCCCCCCCCCC	-3.48
in CC#N	-2.96
in CC(C)CC(C)(C)C	-3.78
in CCC#N	-3.49
in CCCC#N	-3.2
in CCCCC(CC)COC(=O)CCCCC(=O)OCC(CC)CCCC	-3.36
in CCCCC(CC)COC(=O)c1ccccc1C(=O)OCC(CC)CCCC	-3.18
in CCCCCCC	-3.83
in CCCCCCCCC=CCCCCCCCC(=O)OCC(COC(=O)CCCCCCCC=CCCCCCCCC)OC(=O)CCCCCCCC=CCCCCCCCC	-3.41
in CCCCCCCCCCCCCCCC	-3.51
in CCCCCCCCO	-3.29
in CCCCCO	-3.3
in CCCCO	-3.22
in CCCCOC(=O)c1ccccc1C(=O)OCCCC	-3.37
in CCN1CCCC1=O	-3.11
in CCN(CC)C(C)=O	-3.26
in CCNC(C)=O	-3.04
in CCNC=O	-2.85
in CCOC(=O)c1ccccc1C(=O)OCC	-2.96
in CN1CCCC1=O	-2.91
in CN1CCCCC1=O	-3.06
in CN1CCN(C)C1=O	-2.83
in CN(C)C=O	-2.96
in CNC=O	-2.55
in COC(C)=O	-3.51
in CS(C)=O	-2.1
in Cc1cccc(C)c1	-3.74
in N#CCCCCC#N	-2.31
in N#Cc1ccccc1	-3.15
in NC=O	-0.91
in NCCO	-1.17
in Nc1ccccc1	-2.68
in O	1.58
in O=C1CCCO1	-2.49
in O=CN1CCOCC1	-2.37
in O=Cc1ccco1	-2.62
in OCCO	-1.11
in OCCOCCO	-1.73
in OCCOCCOCCO	-1.83
in OCCOCCOCCOCCO	-1.94
in OCc1ccco1	-2.53
in c1ccc2c(c1)CCCC2	-3.69
in c1ccc(C2CCCCC2)cc1	-3.63

CC(F)(F)Cl
Settings	solvation free energy, 298 K [kcal/mol]
in CCCCCCCC(=O)OCC(COC(=O)CCCCCCC)OC(=O)CCCCCCC	-1.84
in CCCCCCCCC	-1.74
in CCCCCCCCO	-1.62
in CN1CCCC1=O	-2.13
in CN(C)C=O	-2.09
in O	0.61

CN(C)C(=O)c1ccccc1
Settings	solvation free energy, 298 K [kcal/mol]
in O	-9.29

Cc1nc(NS(=O)(=O)c2ccc(N)cc2)oc1C
Settings	solvation free energy, 298 K [kcal/mol]
in O	-17.7

CCOC(=O)CCC(=O)OCC
Settings	solvation free energy, 298 K [kcal/mol]
in O	-5.71

CCCCCCI
Settings	solvation free energy, 298 K [kcal/mol]
in O	0.08

Nc1ncnc2c1ncn2C1CC(O)C(CO)O1 (stereo unspecified)
Settings	solvation free energy, 298 K [kcal/mol]
in C=CCCCCCCC=C	-16.6
in C=CCCCCCCCCCCCCCC	-15.8
in O	-24.3

c1ccc(Cn2ccnc2)cc1
Settings	solvation free energy, 298 K [kcal/mol]
in O	-7.63

CC(CC(C)(C)C)CC(C)(C)CC(C)(C)C (stereo unspecified)
Settings	solvation free energy, 298 K [kcal/mol]
in O	4.46

Clc1ccc(-c2ccc(Cl)cc2)cc1
Settings	solvation free energy, 298 K [kcal/mol]
in CCCCCCCCC=CCCCCCCCC(=O)OCC(COC(=O)CCCCCCCC=CCCCCCCCC)OC(=O)CCCCCCCC=CCCCCCCCC	-10.9
in CCCCCCCCO	-10.7
in O	-2.91

COC(=O)c1ccc(Cl)c(Cl)c1
Settings	solvation free energy, 298 K [kcal/mol]
in CN(C)C=O	-9.19
in O	-3.75

c1ccc2c(c1)ccc1ccccc12
Settings	solvation free energy, 298 K [kcal/mol]
in C1CCOC1	-11.5
in C1COCCO1	-11.3
in CC(=O)N(C)C	-11.4
in CC(C)(C)O	-9.55
in CC(C)=O	-11.3
in CC(C)CC(C)(C)C	-9.75
in CC(C)CC(C)O	-9.7
in CC(C)CCO	-9.73
in CC(C)CO	-9.56
in CC(C)O	-9.64
in CCC(C)(C)O	-9.84
in CCC(C)O	-9.64
in CCCC(C)CO	-9.72
in CCCC(C)O	-9.79
in CCCCC(CC)CO	-9.87
in CCCCCC	-10
in CCCCCCC	-10.1
in CCCCCCCC	-10.1
in CCCCCCCCC=CCCCCCCCC(=O)OCC(COC(=O)CCCCCCCC=CCCCCCCCC)OC(=O)CCCCCCCC=CCCCCCCCC	-10.6
in CCCCCCCCCC	-10.1
in CCCCCCCCO	-10.3
in CCCCCCCO	-10.1
in CCCCCO	-10
in CCCCO	-9.89
in CCCCOC(C)=O	-11
in CCCCOCCCC	-10.5
in CCCO	-9.96
in CCO	-10
in CCOC(C)=O	-11.1
in CN1CCCC1=O	-11.5
in CO	-9.88
in COC(C)(C)C	-10.7
in COC(C)=O	-11.1
in ClC(Cl)(Cl)Cl	-11
in O	-3.8
in O=C1CCCCC1	-11.4

C#CCCCCCC
Settings	solvation free energy, 298 K [kcal/mol]
in CN1CCCC1=O	-4.98
in CN(C)C=O	-4.99
in CS(C)=O	-4.42
in N#CCCCCC#N	-4.31
in NCCO	-3.17
in O	0.71

ICI
Settings	solvation free energy, 298 K [kcal/mol]
in O	-2.49

ClCC(Cl)(Cl)Cl
Settings	solvation free energy, 298 K [kcal/mol]
in O	-1.43

O=[N+]([O-])c1ccc(Cl)cc1
Settings	solvation free energy, 298 K [kcal/mol]
in O	-5.05

O=C(O)c1ccc(CO)cc1
Settings	solvation free energy, 298 K [kcal/mol]
in C=CCCCCCCCCCCCCCC	-8.43
in O	-13.3

Cc1cccc(C(=O)O)c1
Settings	solvation free energy, 298 K [kcal/mol]
in C1CCOC1	-10.5
in C1COCCO1	-10.1
in CC(C)(C)O	-10.2
in CC(C)CC(C)O	-10
in CC(C)CCO	-9.93
in CC(C)CO	-9.91
in CC(C)O	-10.1
in CC(C)OCCO	-10.1
in CC(O)COC(C)(C)C	-9.97
in CCC(C)CO	-9.88
in CCC(C)O	-10.1
in CCCC(C)CO	-9.89
in CCCC(C)O	-10
in CCCCCCCCCCO	-9.65
in CCCCCCCCO	-9.87
in CCCCCCCO	-9.91
in CCCCCCO	-9.94
in CCCCCO	-9.99
in CCCCO	-10
in CCCCOC(C)=O	-9.69
in CCCCOCCO	-10
in CCCO	-10.3
in CCCOCCO	-10.1
in CCO	-10.2
in CCOC(C)=O	-9.9
in CCOCC	-10
in CCOCCO	-10.1
in CO	-10.3
in COC(C)=O	-9.99
in COC(C)CCO	-10.1
in O	-6.79

Nc1ccc(O)cc1
Settings	solvation free energy, 298 K [kcal/mol]
in C1COCCO1	-12.3

CCOCCOC(=O)c1ccccc1C(=O)OCCOCC
Settings	solvation free energy, 298 K [kcal/mol]
in O	-13.4

CF
Settings	solvation free energy, 298 K [kcal/mol]
in CCCO	0.03
in O	-0.22

Clc1c(Cl)c(Cl)c(Cl)c(Cl)c1Cl
Settings	solvation free energy, 298 K [kcal/mol]
in C1CCOC1	-11
in C1COCCO1	-10.8
in CC(C)CC(C)(C)C	-10
in CC(C)CCO	-9.59
in CCCC(C)O	-9.45
in CCCCC(CC)CO	-9.86
in CCCCCC	-10.2
in CCCCCCC	-10.2
in CCCCCCCC	-10.3
in CCCCCCCCC=CCCCCCCCC(=O)OCC(COC(=O)CCCCCCCC=CCCCCCCCC)OC(=O)CCCCCCCC=CCCCCCCCC	-9.52
in CCCCCCCCCC	-10.3
in CCCCCCCCO	-9.78
in CCCCCl	-10.6
in CCCCOC(C)=O	-10.4
in CCCCOCCCC	-10.4
in CCOC(C)=O	-10.2
in COC(C)=O	-10.2

C=CC1CC=CCC1 (stereo unspecified)
Settings	solvation free energy, 298 K [kcal/mol]
in CCCCCCCCCCCCCCCC	-4.94
in COCCO	-4.42
in CS(C)=O	-3.97
in O	0.36

CC(C(=O)O)c1ccc(C(=O)c2cccs2)cc1 (stereo unspecified)
Settings	solvation free energy, 298 K [kcal/mol]
in O	-13.9

N
Settings	solvation free energy, 298 K [kcal/mol]
in CC(C)=O	-2.02
in CC(C)CO	-2.54
in CC(C)O	-2.37
in CCC(C)=O	-1.94
in CCCCCCC	-1.27
in CCCCO	-2.4
in CCCO	-2.4
in CCO	-2.65
in CN1CCCC1=O	-1.85
in CO	-3.08
in ClC(Cl)Cl	-2.41
in Clc1ccccc1	-1.36
in O	-4.34

CC(C)(C)Br
Settings	solvation free energy, 298 K [kcal/mol]
in Brc1ccccc1	-3.89
in C1CCOC1	-3.87
in C1COCCO1	-3.81
in C=CCCCCCCCCCCCCCC	-3.56
in CC(=O)N(C)C	-3.52
in CC(C)(C)O	-3.36
in CC(C)=O	-3.86
in CC(C)O	-3.23
in CCCCCC	-3.75
in CCCCO	-3.3
in CCCO	-3.19
in CCOC(C)=O	-4.05
in CCOCC	-3.85
in CN1CCCC1=O	-3.44
in CN(C)C=O	-3.59
in ClC(Cl)(Cl)Cl	-4.13
in ClCCCl	-4.02
in Clc1ccccc1	-3.93
in N#Cc1ccccc1	-3.64
in O	0.85

CS(C)=O
Settings	solvation free energy, 298 K [kcal/mol]
in CCCCCCCCCCCCCCCC	-4.14
in CCOC(C)=O	-6.66

Nc1ncnc2c1ncn2C1CCC(CO)O1 (stereo unspecified)
Settings	solvation free energy, 298 K [kcal/mol]
in C=CCCCCCCC=C	-14.8
in C=CCCCCCCCCCCCCCC	-14.7
in O	-20.5

Cc1cc(C)cc(C)c1
Settings	solvation free energy, 298 K [kcal/mol]
in O	-0.77
in OCCO	-3.76
in OCCOCCO	-4.65

CCCNCCC
Settings	solvation free energy, 298 K [kcal/mol]
in O	-3.65
